Measured values: paper PMC11100219, “Dual-function antimicrobial-antibiofilm peptide hybrid to tackle biofilm-forming Staphylococcus epidermidis” (Annals of Clinical Microbiology and Antimicrobials, 2024)
Values after ≈ are worked out from the molar mass of the structure shown. Residues, ends and D or L forms follow the SMILES beside them.

Tests used:
[1] = system: Acinetobacter baumanii MT strain; assay: Broth microdilution MIC / MBC; format: cell-based; conditions: 24 h, 37°C
Procedure: (§1) The minimal inhibitory concentrations (MICs) of peptide derivatives versus planktonic bacteria were assessed using a modification of the broth microdilution assay previously described in the National Committee for Clinical Laboratory Standards (NCCLS). In brief, bacteria at mid-logarithmic growth were collected by centrifugation at 2,500 × g for 5 min. Subsequently, the pellet was resuspended and adjusted in Mueller-Hinton Broth (MHB; BD Bacto™, USA) to an OD620 of 0.05. Fifty µL of bacterial suspensions was transferred to 96-well microplates. Later, 50 µL of peptide derivatives at 0.98–250 µg/mL in 10 mM PBS, was added to wells and incubated for 24 h at 37°C with continuous shaking at 220 rpm. […] The experiments were done in three technical replicates and repeated independently.
(§2) To determine minimal bactericidal concentrations (MBCs) of the peptides, 50 µL of supernatant from non-turbid wells was plated on TSA, and the number of colony-forming units (CFUs) was observed after 24 h of incubation at 37°C. MBC was defined as the minimum concentration of peptide at which no bacterial colony was observed on the plate.

[2] = system: Bacillus cereus ATCC 11778; assay: Broth microdilution MIC / MBC; format: cell-based; conditions: 24 h, 37°C
Procedure: as §1, §2

[3] = system: Escherichia coli ATCC 25922; assay: Broth microdilution MIC / MBC; format: cell-based; conditions: 24 h, 37°C
Procedure: as §1, §2

[4] = system: Listeria monocytogenes 10403s; assay: Broth microdilution MIC / MBC; format: cell-based; conditions: 24 h, 37°C
Procedure: as §1, §2

[5] = system: Pseudomonas aeruginosa ATCC 27853; assay: Broth microdilution MIC / MBC; format: cell-based; conditions: 24 h, 37°C
Procedure: as §1, §2

[6] = system: Salmonella Typhimurium ATCC 13311; assay: Broth microdilution MIC / MBC; format: cell-based; conditions: 24 h, 37°C
Procedure: as §1, §2

[7] = system: Staphylococcus aureus ATCC 25923; assay: Broth microdilution MIC / MBC; format: cell-based; conditions: 24 h, 37°C
Procedure: as §1, §2

[8] = system: Staphylococcus epidermidis ATCC 35984; assay: Broth microdilution MIC / MBC; format: cell-based; conditions: plating of non-turbid wells on TSA, 24 h, 37°C
Procedure: as §1, §2

S. epidermidis = assay: Serum stability by MIC in human serum; format: cell-based, Staphylococcus epidermidis; conditions: 10^6 CFU/mL, 24 h, 37°C
Procedure: The stability of BiF2_5K7K in the presence of human serum was assessed by evaluating the MIC values, as previously described. Human serum was subjected to heat inactivation at 56°C for 30 min. Bacterial suspensions were then adjusted to a concentration of 10^6 CFU/mL in MHB supplemented with 25% and 50% human serum. These suspensions were mixed with two-fold serially diluted concentrations of BiF2_5K7K (ranging from 0.98 to 250 µg/mL) and incubated at 37°C for 24 h. MICs were subsequently determined as described above. The study protocol was ethically approved by the Thammasat University Ethics Committee (COA No. 066/2562). All volunteers provided written informed consent.

[9] = broth microdilution, MHB, 0.98-250 µg/mL, visible inspection
[10] = plating of non-turbid wells on TSA

Compound: CC[C@H](C)[C@H](NC(=O)[C@H](CCCCN)NC(=O)[C@H](CCCCN)NC(=O)[C@@H](NC(=O)[C@H](CC(C)C)NC(=O)[C@@H](N)Cc1ccccc1)C(C)C)C(=O)N[C@@H](CCCCN)C(=O)N[C@@H](CCCCN)C(=O)N[C@H](C(=O)N[C@@H](CC(C)C)C(=O)N[C@@H](CCCNC(=N)N)C(=O)N[C@@H](CCCNC(=N)N)C(N)=O)[C@@H](C)CC [BiF2_5K7K] (H-FLVKKIKKILRR-NH2; N-terminus assumed)
- MIC [1, 9]: 31.2 µg/mL (≈ 20.3 µM)
- MBC [1, 10]: 31.2 µg/mL (≈ 20.3 µM)
- MIC [2, 9]: 250 µg/mL (≈ 162 µM)
- MBC [2, 10]: 250 µg/mL (≈ 162 µM)
- MIC [3, 9]: 250 µg/mL (≈ 162 µM)
- MBC [3, 10]: 250 µg/mL (≈ 162 µM)
- MIC [4, 9]: 31.25 µg/mL (≈ 20.3 µM)
- MBC [4, 10]: 62.5 µg/mL (≈ 40.6 µM)
- MIC [5, 9]: 62.5 µg/mL (≈ 40.6 µM)
- MBC [5, 10]: 125 µg/mL (≈ 81.1 µM)
- MIC [6, 9]: 31.25 µg/mL (≈ 20.3 µM)
- MBC [6, 10]: 62.5 µg/mL (≈ 40.6 µM)
- MIC [7, 9]: > 250 µg/mL
- MBC [7, 10]: > 250 µg/mL
- MBC [8]: 31.25 µg/mL (≈ 20.3 µM)
- MIC in the presence of human serum (S. epidermidis; MHB with 25% heat-inactivated human serum): 15.63 µg/mL
- MIC in the presence of human serum (S. epidermidis; MHB with 50% heat-inactivated human serum): 15.63 µg/mL
